Data taken from article PMC5458211, “Mitochondrial VDAC1-based peptides: Attacking oncogenic properties in glioblastoma” (Oncotarget, 2017).
Non-standard residues stand in square brackets, D forms with d. Residues, ends and D or L forms follow the SMILES beside them.

Tests used:
[1] = system: apoptosis-related proteins; assay: Expression of apoptosis-related proteins in treated tumors (IHC, immunoblot); type: in vivo, human U-87MG in nude mice; conditions: treated tumors vs PBS/DMSO
Source text: Red color indicates PI nuclear staining and green color TUNEL staining. B. Representative sections from PBS/DMSO- and peptide-TTs IHC stained for p53, Cyto c, AIF, Caspase 3 and Smac/Diablo and then hematoxylin-stained and visualized by microscopy. C. Tissue lysates obtained from controls and several Tf-D-LP4-TTs were immunoblotted for p53, Caspase 8, Cyto c, Smac/Diablo, Caspase 3 and Bcl-2. D. Quantitative analysis of immunoblots is shown (n=2-4).
Formalin-fixed, paraffin-embedded sections of control and peptide-TTs were hematoxylin-eosin stained, probed with appropriate antibodies via IHC staining or immunoblotting of cells and tissue extracts. […]
HBSS solution. Cells or tumor tissue were lysed using lysis buffer (50 mM Tris-HCl, pH 7.5, 150 mM NaCl, 1
Xenograft and intracranial-orthotopic mouse mM EDTA, 1.5 mM MgCl2, 10% glycerol, 1% Triton models X-100, supplemented with a protease inhibitor cocktail
(Calbiochem, UK). Cell lysates were then centrifuged at U-87MG glioblastoma cells (3 x106) were inoculated 600xg (10 min at 4°C) and samples (10-40 μg of protein) s.c. into the hind leg ﬂanks of athymic eight-week old were subjected to SDS-PAGE and immunoblotting male nude mice (Envigo). Thirteen days post-inoculation, using various primary antibodies (sources and dilutions tumor volume was measured and calculated (100-130 as detailed in supplementary Table 2), followed by mm3) and mice were randomized into three groups (5 the appropriate HRP-conjugated secondary antibodies mice/group). Each treatment substance was injected into (i.e., anti-mouse, anti-rabbit or anti-goat). Blots the established s,c. tumors using PBS containing 0.26% were developed using enhanced chemiluminescence DMSO or peptide in PBS, 0.26% DMSO/20 μM). The (Biological Industries). Band intensities were analyzed xenografts were injected 20 µl per tumor (2 points) every by densitometry using Multi Gauge software (Fujifilm) two days. Beginning on the day of inoculation, mouse and the values were normalized to the intensities of the weight and tumor volume were monitored twice a week appropriate β-actin signal that served as a loading control. for a period of 23 days using a digital caliper. At the end of the experiments, the mice were sacrificed, tumors were IHC of tumor tissue sections excised and ex vivo weight was determined. Half of each tumor was either fixed in 4% buffered formaldehyde, IHC staining was performed on 5 μm-thick paraffin-embedded and processed for IHC or frozen in formalin-fixed and paraffin-embedded tumor tissue liquid nitrogen for later immunoblot analysis. sections. The sections were deparaffinized by placing To generate an intracranial-orthotopic mouse model, the slides at 60°C for 1 h and using xylene. […]
(Stoelting, Wood Dale, IL). A middle incision was made c, cytochrome c oxidase subunit IVc, GAPDH, Glut1, on the skull and a burr hole was introduced 0.5 mm HK-II, Klf4, LDH, Nestin, NGFR, P53, SMAC/Diablo, anterior to the bregma and 2.5 mm lateral to the midline Sox2, S100b, VDAC1) was performed in 0.01 M citrate using a drill (Stoelting). A 31-gauge needle loaded with buffer (pH 6.0). For CD31, HK-I and Ki-67, antigen 10 µL PBS was used to deliver tumor cells. The needle retrieval was performed in 10 mM Tris-EDTA (pH 9) and tip was inserted into the brain 3 mm deep, relative to the 0.5 M Tris (pH 10), for 30 minutes each at 95-98°C. After skull surface, and maintained at this depth for 2 minutes washing sections in PBS containing 0.1% Triton-X100 before injection of tumor cells. Under sterile conditions, (pH 7.4), non-specific antibody binding was reduced by a 3 µL solution containing U-87MG (8×104) cells was incubating the sections in 10% normal goat serum for 2 injected into the brain parenchyma over a period of […]. After decanting excess serum, sections were incubated
(1 picture or pasted object on this page, not shown here)

U-87MG cells = assay: Cell death by propidium iodide (PI) staining and flow cytometry, U-87MG; type: cell-based, human; conditions: 6 h at 37°C, serum-free medium, means ± SD (n=3), Fig 1H, read-out: IC50 for inducing cell death
Source text: Figure 1 VDAC1-based peptides induce dramatic cell death of several brain tumor-derived cell lines but to lesser extent in primary brain cells A. IHC staining of VDAC1 of human normal brain (n=13) or glioblastoma (n=41) in tissue array slides (Biomax), as described in Materials and methods available online in Supplemental information. Percentages of sections stained at the intensity indicated are shown. […] The VDAC1-derived sequences Δ(1-14)N-terminus and LP4 are in green and pink, respectively. The cell-penetrating peptides Antp and Tf are in orange and blue, respectively. The loop shape of LP4 stabilized by a tryptophan zipper is in purple. The amino acids of Δ(1-14)N-terminus, LP4 and Antp are in the D configuration. […] Cells were harvested, washed twice with PBS and cell death was analyzed by propidium iodide (PI) staining and flow cytometry. […] Cells were harvested, washed twice with PBS and cell death was analyzed by PI staining and flow cytometry. […]
Sections were also hematoxylin-stained and visualized by microscopy. […] Quantitative analysis of immunoblots is shown (n=2-4). […] E. Quantitative analysis of immunoblots. […]
[…] The cells were then trypsinized, centrifuged (1500xg, 5 min), washed with PBS and analyzed for cell death using propidium iodide (PI) staining and flow cytometer (Beckton-Dickinson, San Jose, CA) and BD CellQuest Pro software. […]

Compound	Bcl-2 level [1]	Caspase 3 expression increase [1] [fold]	Caspase 8 expression increase [1]	Cyto c expression increase [1]	SMAC/DIABLO expression [1]	p53 expression increase [1]	IC50 (U-87MG cells) [µM]
CC[C@H](C)[C@H](NC(=O)[C@H](C)NC(=O)[C@@H](N)Cc1c[nH]cn1)C(=O)N[C@@H](Cc1ccc(O)cc1)C(=O)N1CCC[C@H]1C(=O)N[C@@H](CCCNC(=N)N)C(=O)N[C@@H](Cc1c[nH]cn1)C(=O)N[C@@H](CO)C(=O)N[C@@H](Cc1c[nH]c2ccccc12)C(=O)N[C@H](C(=O)N[C@@H](Cc1c[nH]c2ccccc12)C(=O)N[C@@H](CCC(=O)O)C(=O)N[C@H](CCCCN)C(=O)N[C@H](CCCCN)C(=O)N[C@H](CC(C)C)C(=O)N[C@H](CCC(=O)O)C(=O)N[C@@H](C(=O)N[C@H](C)C(=O)N[C@@H](C(=O)N[C@H](CC(N)=O)C(=O)N[C@H](CC(C)C)C(=O)N[C@H](C)C(=O)N[C@H](Cc1c[nH]c2ccccc12)C(=O)N[C@@H](C(=O)N[C@H](C)C(=O)NCC(=O)N[C@H](CC(N)=O)C(=O)N[C@H](CO)C(=O)N[C@H](CC(N)=O)C(=O)N[C@@H](CCCCN)C(=O)N[C@@H](Cc1c[nH]c2ccccc12)C(=O)N[C@H](C(=O)N[C@@H](Cc1c[nH]c2ccccc12)C(=O)N[C@@H](CCCCN)C(=O)O)[C@@H](C)O)[C@H](C)O)C(C)C)[C@H](C)O)[C@@H](C)O [Tf-D-LP4]	almost undetectable	> 5	about 20 fold	over 10 fold	much higher	over 12 fold	
CC[C@@H](C)[C@@H](NC(=O)[C@@H](CCCCN)NC(=O)[C@H](NC(=O)[C@@H](CCC(N)=O)NC(=O)[C@@H](CCCNC(=N)N)NC(=O)[C@@H](CC(C)C)NC(=O)CNC(=O)[C@@H](Cc1ccccc1)NC(=O)CNC(=O)[C@@H](Cc1ccc(O)cc1)NC(=O)CNC(=O)[C@@H](CCCCN)NC(=O)[C@H](NC(=O)[C@@H](Cc1ccccc1)NC(=O)[C@H](NC(=O)[C@@H](CC(=O)O)NC(=O)[C@H](N)CCCNC(=N)N)C(C)C)[C@H](C)O)[C@H](C)CC)C(=O)N[C@H](Cc1c[nH]c2ccccc12)C(=O)N[C@H](Cc1ccccc1)C(=O)N[C@H](CCC(N)=O)C(=O)N[C@H](CC(N)=O)C(=O)N[C@H](CCCNC(=N)N)C(=O)N[C@H](CCCNC(=N)N)C(=O)N[C@H](CCSC)C(=O)N[C@H](CCCCN)C(=O)N[C@H](Cc1c[nH]c2ccccc12)C(=O)N[C@H](CCCCN)C(=O)N[C@H](CCCCN)C(=O)O [D-ΔN-Ter-Antp] (H-[dR][dD][dV][dF][dT][dK]G[dY]G[dF]G[dL][dR][dQ][dI][dK][dI][dW][dF][dQ][dN][dR][dR][dM][dK][dW][dK][dK]-OH; N-terminus and C-terminus assumed)							3.2 ± 0.6
